The assay addresses recombinant Mcl-1 (residues 172-327) (Homo sapiens (Human), UniProt Q07820). Briefly: Bak peptide binding assay, fluorescence polarization anisotropy competition (FITC-Bak), Mcl-1.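 Further: displacement of labeled Bak peptide read by fluorescence anisotropy, 10-point threefold dilutions from 20 µM top dose in 5% DMSO, 90 min incubation at room temperature.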 Particulars: Table 3, binned ranges; FITC-Bak peptide 10 nM, Mcl-1 14 nM; read-out: Ki for inhibition of Mcl-1. A general note: In fluorescence polarisation assays a small probe gives low polarisation when free and higher when bound to something large.

Some results are limits rather than exact numbers.

Usually Ki stands for a dissociation constant, usually derived from enzyme kinetics or from competition with a known ligand.

recombinant Mcl-1 (residues 172-327), sequence (Q07820 172-327): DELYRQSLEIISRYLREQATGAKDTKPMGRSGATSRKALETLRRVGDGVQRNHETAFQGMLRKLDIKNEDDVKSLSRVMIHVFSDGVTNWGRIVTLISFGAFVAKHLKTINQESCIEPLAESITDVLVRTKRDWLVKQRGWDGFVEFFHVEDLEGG

Take `Cc1cc(OCCCc2c(C)n(CCC(=O)NS(C)(=O)=O)c3c(-c4cccn4C)cccc23)cc(C)c1Cl` [Example 84, 3-(3-(3-(4-chloro-3,5-dimethylphenoxy)propyl)-2-methyl-7-(1-methyl-1H-pyrrol-2-yl)-1H-indol-1-yl)-N-(methylsulfonyl)propanamide]: the Ki was not above 100 nM.
In the case of `Cc1cc(OCCCc2c(C)n(CCC(=O)NS(C)(=O)=O)c3c(-c4c(C)nn(C)c4C)cccc23)cc(C)c1Cl` [Example 85, 3-(3-(3-(4-chloro-3,5-dimethylphenoxy)propyl)-2-methyl-7-(1,3,5-trimethyl-1H-pyrazol-4-yl)-1H-indol-1-yl)-N-(methylsulfonyl)propanamide], the Ki was not above 100 nM.
Take `CCn1nc(C)c(-c2cccc3c(CCCOc4cc(C)c(Cl)c(C)c4)c(C)n(CCC(=O)NS(C)(=O)=O)c23)c1C` [Example 86, 3-(3-(3-(4-chloro-3,5-dimethylphenoxy)propyl)-7-(1-ethyl-3,5-dimethyl-1H-pyrazol-4-yl)-2-methyl-1H-indol-1-yl)-N-(methylsulfonyl)propanamide]: the inhibitory constant (Ki) is not above 100 nM.
With `CCn1nc(C)c(-c2cccc3c(CCCOc4cc(C)c(Cl)c(C)c4)c(C)n(CCC(=O)NS(=O)(=O)c4ccccc4)c23)c1C` [Example 87, 3-(3-(3-(4-chloro-3,5-dimethylphenoxy)propyl)-7-(1-ethyl-3,5-dimethyl-1H-pyrazol-4-yl)-2-methyl-1H-indol-1-yl)-N-(phenylsulfonyl)propanamide], the Ki is not above 100 nM.
As to `Cc1cc(OCCCc2c(C)n(CCC(=O)NS(=O)(=O)Cc3ccccc3)c3c(-c4c(C)nn(C)c4C)cccc23)cc(C)c1Cl` [Example 88, N-(benzylsulfonyl)-3-(3-(3-(4-chloro-3,5-dimethylphenoxy)propyl)-2-methyl-7-(1,3,5-trimethyl-1H-pyrazol-4-yl)-1H-indol-1-yl)propanamide], the Ki was not above 100 nM.
As to `Cc1cc(OCCCc2c(C)n(CCC(=O)NS(=O)(=O)c3ccc4ccccc4c3)c3c(-c4c(C)nn(C)c4C)cccc23)cc(C)c1Cl` [Example 89, 3-(3-(3-(4-chloro-3,5-dimethylphenoxy)propyl)-2-methyl-7-(1,3,5-trimethyl-1H-pyrazol-4-yl)-1H-indol-1-yl)-N-(naphthalen-2-ylsulfonyl)propanamide], the Ki is not above 100 nM.
As for `Cc1cc(OCCCc2c(C)n(CCC(=O)NS(=O)(=O)c3ccc(Oc4ccccc4)cc3)c3c(-c4c(C)nn(C)c4C)cccc23)cc(C)c1Cl` [Example 90, 3-(3-(3-(4-chloro-3,5-dimethylphenoxy)propyl)-2-methyl-7-(1,3,5-trimethyl-1H-pyrazol-4-yl)-1H-indol-1-yl)-N-((4-phenoxyphenyl)sulfonyl)propanamide], the Ki was not above 100 nM.
The figure for `Cc1cc(OCCCc2c(C)n(CCC(=O)NS(=O)(=O)c3ccccc3[N+](=O)[O-])c3c(-c4c(C)nn(C)c4C)cccc23)cc(C)c1Cl` [Example 91, 3-(3-(3-(4-chloro-3,5-dimethylphenoxy)propyl)-2-methyl-7-(1,3,5-trimethyl-1H-pyrazol-4-yl)-1H-indol-1-yl)-N-((2-nitrophenyl)sulfonyl)propanamide] is not above 100 nM; for `Cc1cc(OCCCc2c(C)n(CCC(=O)NS(=O)(=O)c3cccc([N+](=O)[O-])c3)c3c(-c4c(C)nn(C)c4C)cccc23)cc(C)c1Cl` [Example 92, 3-(3-(3-(4-chloro-3,5-dimethylphenoxy)propyl)-2-methyl-7-(1,3,5-trimethyl-1H-pyrazol-4-yl)-1H-indol-1-yl)-N-((3-nitrophenyl)sulfonyl)propanamide] it is not above 100 nM.
With `Cc1cc(OCCCc2c(C)n(CCC(=O)NS(=O)(=O)c3ccc([N+](=O)[O-])cc3)c3c(-c4c(C)nn(C)c4C)cccc23)cc(C)c1Cl` [Example 93, 3-(3-(3-(4-chloro-3,5-dimethylphenoxy)propyl)-2-methyl-7-(1,3,5-trimethyl-1H-pyrazol-4-yl)-1H-indol-1-yl)-N-((4-nitrophenyl)sulfonyl)propanamide], the Ki was not above 100 nM.
For `Cc1cc(OCCCc2c(C)n(CCC(=O)NS(=O)(=O)c3ccccn3)c3c(-c4c(C)nn(C)c4C)cccc23)cc(C)c1Cl` [Example 94, 3-(3-(3-(4-chloro-3,5-dimethylphenoxy)propyl)-2-methyl-7-(1,3,5-trimethyl-1H-pyrazol-4-yl)-1H-indol-1-yl)-N-(pyridin-2-ylsulfonyl)propanamide], the Ki is not above 100 nM.
`Cc1cc(OCCCc2c(C)n(CCC(=O)NS(=O)(=O)c3cccnc3)c3c(-c4c(C)nn(C)c4C)cccc23)cc(C)c1Cl` [Example 95, 3-(3-(3-(4-chloro-3,5-dimethylphenoxy)propyl)-2-methyl-7-(1,3,5-trimethyl-1H-pyrazol-4-yl)-1H-indol-1-yl)-N-(pyridin-3-ylsulfonyl)propanamide]: the Ki was not above 100 nM.
Take `Cc1cc(OCCCc2c(C)n(CCC(=O)NS(=O)(=O)c3ccncc3)c3c(-c4c(C)nn(C)c4C)cccc23)cc(C)c1Cl` [Example 96, 3-(3-(3-(4-chloro-3,5-dimethylphenoxy)propyl)-2-methyl-7-(1,3,5-trimethyl-1H-pyrazol-4-yl)-1H-indol-1-yl)-N-(pyridin-4-ylsulfonyl)propanamide]: the Ki is not above 100 nM.
Regarding `Cc1cc(OCCCc2c(C)n(Cc3ccccc3C(=O)O)c3c(-c4c(C)n[nH]c4C)cccc23)cc(C)c1Cl` [Example 97, 2-((3-(3-(4-chloro-3,5-dimethylphenoxy)propyl)-7-(3,5-dimethyl-1H-pyrazol-4-yl)-2-methyl-1H-indol-1-yl)methyl)benzoic acid], the Ki was in the range of 1000 to 9990 nM.
Consider `Cc1cc(OCCCc2c(C)n(Cc3ccc(C(=O)O)cc3)c3c(-c4c(C)n[nH]c4C)cccc23)cc(C)c1Cl` [Example 98, 4-((3-(3-(4-chloro-3,5-dimethylphenoxy)propyl)-7-(3,5-dimethyl-1H-pyrazol-4-yl)-2-methyl-1H-indol-1-yl)methyl)benzoic acid], for which the Ki is not above 100 nM.
Regarding `Cc1cc(OCCCc2c(C)n(Cc3cccc(C(=O)O)c3)c3c(-c4c(C)nn(C)c4C)c(Cl)ccc23)cc(C)c1Cl` [Example 102, 3-((6-chloro-3-(3-(4-chloro-3,5-dimethylphenoxy)propyl)-2-methyl-7-(1,3,5-trimethyl-1H-pyrazol-4-yl)-1H-indol-1-yl)methyl)benzoic acid], the Ki was not above 100 nM.
The same measure for `Cc1cc(OCCCc2c(C)n(Cc3ccc(CC(=O)O)cc3)c3c(-c4c(C)nn(C)c4C)c(Cl)ccc23)cc(C)c1Cl` [Example 103, 2-(4-((6-chloro-3-(3-(4-chloro-3,5-dimethylphenoxy)propyl)-2-methyl-7-(1,3,5-trimethyl-1H-pyrazol-4-yl)-1H-indol-1-yl)methyl)phenyl)acetic acid]: not above 100 nM; for `Cc1cc(OCCCc2c(C)n(CCC(=O)O)c3c(-c4c(C)nn(Cc5ccccn5)c4C)cccc23)cc(C)c1Cl` [Example 105, 3-(3-(3-(4-chloro-3,5-dimethylphenoxy)propyl)-7-(3,5-dimethyl-1-(pyridin-2-ylmethyl)-1H-pyrazol-4-yl)-2-methyl-1H-indol-1-yl)propanoic acid]: not above 100 nM.
On to `Cc1cc(OCCCc2c(C)n(CCC(=O)O)c3c(-c4c(C)nn(CC5CCOC5)c4C)cccc23)cc(C)c1Cl` (centres unmarked) [Example 106, 3-(3-(3-(4-chloro-3,5-dimethylphenoxy)propyl)-7-(3,5-dimethyl-1-((tetrahydrofuran-3-yl)methyl)-1H-pyrazol-4-yl)-2-methyl-1H-indol-1-yl)propanoic acid], for which the Ki was not above 100 nM.
`Cc1cc(OCCCc2c(C)n(CCC(=O)O)c3c(-c4c(C)nn(CCN(C)C)c4C)cccc23)cc(C)c1Cl` [Example 109, 3-(3-(3-(4-chloro-3,5-dimethylphenoxy)propyl)-7-(1-(2-(dimethylamino)ethyl)-3,5-dimethyl-1H-pyrazol-4-yl)-2-methyl-1H-indol-1-yl)propanoic acid]: the Ki was 301 to 500 nM.
On to `Cc1cc(OCCCc2c(C)n(CCC(=O)O)c3c(-c4c(C)nn(Cc5ncccn5)c4C)cccc23)cc(C)c1Cl` [Example 110, 3-(3-(3-(4-chloro-3,5-dimethylphenoxy)propyl)-7-(3,5-dimethyl-1-(pyrimidin-2-ylmethyl)-1H-pyrazol-4-yl)-2-methyl-1H-indol-1-yl)propanoic acid], for which the Ki was 1000 to 9990 nM.
For the molecule `Cc1cc(OCCCc2c(C)n(Cc3cccc(C(=O)O)c3)c3c(-c4c(C)nn(Cc5ccccn5)c4C)cccc23)cc(C)c1Cl` [Example 111, 3-((3-(3-(4-chloro-3,5-dimethylphenoxy)propyl)-7-(3,5-dimethyl-1-(pyridin-2-ylmethyl)-1H-pyrazol-4-yl)-2-methyl-1H-indol-1-yl)methyl)benzoic acid], the Ki is not above 100 nM.
The figure for `Cc1cc(OCCCc2c(C)n(Cc3cccc(C(=O)O)c3)c3c(-c4c(C)nn(Cc5cccnc5)c4C)cccc23)cc(C)c1Cl` [Example 112, 3-((3-(3-(4-chloro-3,5-dimethylphenoxy)propyl)-7-(3,5-dimethyl-1-(pyridin-3-ylmethyl)-1H-pyrazol-4-yl)-2-methyl-1H-indol-1-yl)methyl)benzoic acid] is 501 to 999 nM; for `Cc1cc(OCCCc2c(C)n(CCC(=O)O)c3c(-c4c(C)nn(CCN5CCOCC5)c4C)c(Cl)ccc23)cc(C)c1Cl` [Example 113, 3-(6-chloro-3-(3-(4-chloro-3,5-dimethylphenoxy)propyl)-7-(3,5-dimethyl-1-(2-morpholinoethyl)-1H-pyrazol-4-yl)-2-methyl-1H-indol-1-yl)propanoic acid] it is not above 100 nM.
On to `Cc1cc(OCCCc2c(C)n(CC(=O)O)c3c(-c4c(C)nn(C)c4C)c(Cl)ccc23)cc(C)c1Cl` [Example 114, 2-(6-chloro-3-(3-(4-chloro-3,5-dimethylphenoxy)propyl)-2-methyl-7-(1,3,5-trimethyl-1H-pyrazol-4-yl)-1H-indol-1-yl)acetic acid], for which the inhibitory constant (Ki) was not above 100 nM.
On to `Cc1cc(OCCCc2c(C(F)(F)F)n(Cc3cccc(C(=O)O)c3)c3c(Br)cccc23)cc(C)c1Cl` [Example 115, 3-((7-bromo-3-(3-(4-chloro-3,5-dimethylphenoxy)propyl)-2-(trifluoromethyl)-1H-indol-1-yl)methyl)benzoic acid], for which the Ki fell in the range of 101 to 299 nM.

Values taken from patent publication US10954193B2 (Vanderbilt University, priority 2013, dated 2021).
